Experimental data from ChEMBL document CHEMBL1137357, “Further synthetic and biological studies on vitamin D hormone antagonists based on C24-alkylation and C2alpha-functionalization of 25-dehydro-1alpha-hydroxyvitamin D(3)-26,23-lactones” (J Med Chem, 2006).

Molecular target: T1, Vitamin D3 receptor (Homo sapiens) (UniProt P11473)
T1 sequence (whole entry): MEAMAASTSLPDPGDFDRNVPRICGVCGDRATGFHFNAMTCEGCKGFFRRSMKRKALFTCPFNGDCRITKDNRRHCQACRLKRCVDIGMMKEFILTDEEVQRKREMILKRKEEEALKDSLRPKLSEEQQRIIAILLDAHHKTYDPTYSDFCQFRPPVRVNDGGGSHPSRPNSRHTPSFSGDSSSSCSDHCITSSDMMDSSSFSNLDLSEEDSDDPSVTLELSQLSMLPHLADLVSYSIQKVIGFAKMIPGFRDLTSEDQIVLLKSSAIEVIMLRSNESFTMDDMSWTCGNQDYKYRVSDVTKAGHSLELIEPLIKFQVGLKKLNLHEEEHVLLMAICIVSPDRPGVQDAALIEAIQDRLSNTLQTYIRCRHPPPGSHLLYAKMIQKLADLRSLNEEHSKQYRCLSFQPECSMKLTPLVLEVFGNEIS
Assay: Antagonist activity against 1-alpha,25-dihydroxy vitamin D3-induced HL60 cell differentiation by NBT reduction method relative to TEI-9647
Assay type: functional, cell-based
Set-up: scale not given: the % may be the effect or the level left
Settings: HL-60

Row | SMILES | Activity
1 | C=C1/C(=C\C=C2/CCC[C@]3(C)[C@@H]([C@H](C)C[C@@H]4OC(=O)C(=C)[C@@H]4CC)CC[C@@H]23)C[C@@H](O)[C@H](C)[C@@H]1O | 1290%
2 | C=C1C(=O)O[C@@H](C[C@@H](C)[C@H]2CC[C@H]3/C(=C/C=C4/C[C@@H](O)[C@H](CCCO)[C@H](O)C4=C)CCC[C@]23C)[C@@H]1C | 1510%
3 | C=C1C[C@H](C[C@@H](C)[C@H]2CC[C@H]3/C(=C/C=C4/C[C@@H](O)[C@H](OCCCO)[C@H](O)C4=C)CCC[C@]23C)OC1=O | 1160%
4 | C=C1C[C@@H](C[C@@H](C)[C@H]2CC[C@H]3/C(=C/C=C4/C[C@@H](O)C[C@H](O)C4=C)CCC[C@]23C)OC1=O | 7%
5 | C=C1/C(=C\C=C2/CCC[C@]3(C)[C@@H]([C@H](C)C[C@@H]4OC(=O)C(=C)[C@@H]4CC)CC[C@@H]23)C[C@@H](O)[C@H](OCCCO)[C@@H]1O | 600%
6 | C=C1/C(=C\C=C2/CCC[C@]3(C)[C@@H]([C@H](C)C[C@H]4OC(=O)C(=C)[C@H]4CC)CC[C@@H]23)C[C@@H](O)[C@H](OCCCO)[C@@H]1O | 27%
7 | C=C1/C(=C\C=C2/CCC[C@]3(C)[C@@H]([C@H](C)C[C@@H]4OC(=O)C(=C)[C@@H]4C)CC[C@@H]23)C[C@@H](O)[C@H](C)[C@@H]1O | 3750%
8 | C=C1/C(=C\C=C2/CCC[C@]3(C)[C@@H]([C@H](C)C[C@H]4OC(=O)C(=C)C45CC5)CC[C@@H]23)C[C@@H](O)C[C@@H]1O | < 0.3%
9 | C=C1C(=O)O[C@@H](C[C@@H](C)[C@H]2CC[C@H]3/C(=C/C=C4/C[C@@H](O)[C@H](OCCCO)[C@H](O)C4=C)CCC[C@]23C)[C@@H]1C | 1740%
10 | C=C1C[C@H](C[C@@H](C)[C@H]2CC[C@H]3/C(=C/C=C4/C[C@@H](O)[C@H](C)[C@H](O)C4=C)CCC[C@]23C)OC1=O | 1020%
11 | C=C1/C(=C\C=C2/CCC[C@]3(C)[C@@H]([C@H](C)C[C@H]4OC(=O)C(=C)[C@H]4CCC)CC[C@@H]23)C[C@@H](O)[C@H](OCCCO)[C@@H]1O | 97%
12 | C=C1/C(=C\C=C2/CCC[C@]3(C)[C@@H]([C@H](C)C[C@H]4OC(=O)C(=C)[C@@H]4CC(C)C)CC[C@@H]23)C[C@@H](O)[C@H](OCCCO)[C@@H]1O | 42%
13 | C=C1/C(=C\C=C2/CCC[C@]3(C)[C@@H]([C@H](C)C[C@@H]4OC(=O)C(=C)[C@@H]4CCCC)CC[C@@H]23)C[C@@H](O)[C@H](CCCO)[C@@H]1O | 1160%
14 | C=C1/C(=C\C=C2/CCC[C@]3(C)[C@@H]([C@H](C)C[C@@H]4OC(=O)C(=C)[C@H]4CC)CC[C@@H]23)C[C@@H](O)[C@H](C)[C@@H]1O | 248%
15 | C=C1/C(=C\C=C2/CCC[C@]3(C)[C@@H]([C@H](C)C[C@H]4OC(=O)C(=C)[C@@H]4C)CC[C@@H]23)C[C@@H](O)[C@H](C)[C@@H]1O | 85%
16 | C=C1/C(=C\C=C2/CCC[C@]3(C)[C@@H]([C@H](C)C[C@@H]4OC(=O)C(=C)[C@@H]4CC(C)C)CC[C@@H]23)C[C@@H](O)[C@H](C)[C@@H]1O | 1220%

Row | SMILES | Activity
17 | C=C1C[C@H](C[C@@H](C)[C@H]2CC[C@H]3/C(=C/C=C4/C[C@@H](O)[C@H](CCCO)[C@H](O)C4=C)CCC[C@]23C)OC1=O | 2990%
18 | C=C1/C(=C\C=C2/CCC[C@]3(C)[C@@H]([C@H](C)C[C@H]4OC(=O)C(=C)[C@@H]4C)CC[C@@H]23)C[C@@H](O)[C@H](CCCO)[C@@H]1O | 8%
19 | C=C1/C(=C\C=C2/CCC[C@]3(C)[C@@H]([C@H](C)C[C@H]4OC(=O)C(=C)[C@H]4CCCC)CC[C@@H]23)C[C@@H](O)[C@H](OCCCO)[C@@H]1O | 37%
20 | C=C1/C(=C\C=C2/CCC[C@]3(C)[C@@H]([C@H](C)C[C@H]4OC(=O)C(=C)[C@@H]4CC)CC[C@@H]23)C[C@@H](O)[C@H](OCCCO)[C@@H]1O | 25%
21 | C=C1/C(=C\C=C2/CCC[C@]3(C)[C@@H]([C@H](C)C[C@@H]4OC(=O)C(=C)[C@@H]4CC(C)C)CC[C@@H]23)C[C@@H](O)[C@H](OCCCO)[C@@H]1O | 3440%
22 | C=C1/C(=C\C=C2/CCC[C@]3(C)[C@@H]([C@H](C)C[C@H]4OC(=O)C(=C)[C@H]4CC(C)C)CC[C@@H]23)C[C@@H](O)[C@H](OCCCO)[C@@H]1O | 25%
23 | C=C1/C(=C\C=C2/CCC[C@]3(C)[C@@H]([C@H](C)C[C@@H]4OC(=O)C(=C)[C@H]4CC(C)C)CC[C@@H]23)C[C@@H](O)[C@H](CCCO)[C@@H]1O | 388%
24 | C=C1/C(=C\C=C2/CCC[C@]3(C)[C@@H]([C@H](C)C[C@@H]4OC(=O)C(=C)C45CC5)CC[C@@H]23)C[C@@H](O)C[C@@H]1O | 284%
25 | C=C1/C(=C\C=C2/CCC[C@]3(C)[C@@H]([C@H](C)C[C@H]4OC(=O)C(=C)[C@@H]4CC)CC[C@@H]23)C[C@@H](O)[C@H](CCCO)[C@@H]1O | 37%
26 | C=C1/C(=C\C=C2/CCC[C@]3(C)[C@@H]([C@H](C)C[C@H]4OC(=O)C(=C)[C@H]4CCCC)CC[C@@H]23)C[C@@H](O)[C@H](CCCO)[C@@H]1O | 46%
27 | C=C1/C(=C\C=C2/CCC[C@]3(C)[C@@H]([C@H](C)C[C@H]4OC(=O)C(=C)[C@@H]4C)CC[C@@H]23)C[C@@H](O)[C@H](OCCCO)[C@@H]1O | 12%
28 | C=C1/C(=C\C=C2/CCC[C@]3(C)[C@@H]([C@H](C)C[C@H]4OC(=O)C(=C)[C@@H]4CC(C)C)CC[C@@H]23)C[C@@H](O)[C@H](CCCO)[C@@H]1O | 32%
29 | C=C1/C(=C\C=C2/CCC[C@]3(C)[C@@H]([C@H](C)C[C@@H]4OC(=O)C(=C)[C@H]4CCC)CC[C@@H]23)C[C@@H](O)[C@H](OCCCO)[C@@H]1O | 12100%
30 | C=C1/C(=C\C=C2/CCC[C@]3(C)[C@@H]([C@H](C)C[C@@H]4OC(=O)C(=C)[C@H]4CCCC)CC[C@@H]23)C[C@@H](O)[C@H](CCCO)[C@@H]1O | 122%
31 | C=C1C[C@@H](C[C@@H](C)[C@H]2CC[C@H]3/C(=C/C=C4/C[C@@H](O)[C@H](OCCCO)[C@H](O)C4=C)CCC[C@]23C)OC1=O | 66%

Next, values leading:

Row | Activity | SMILES
32 | 250% | C=C1C(=O)O[C@@H](C[C@@H](C)[C@H]2CC[C@H]3/C(=C/C=C4/C[C@@H](O)C[C@H](O)C4=C)CCC[C@]23C)[C@@H]1C
33 | 8% | C=C1/C(=C\C=C2/CCC[C@]3(C)[C@@H]([C@H](C)C[C@H]4OC(=O)C(=C)[C@@H]4CCC)CC[C@@H]23)C[C@@H](O)C[C@@H]1O
34 | 174% | C=C1/C(=C\C=C2/CCC[C@]3(C)[C@@H]([C@H](C)C[C@@H]4OC(=O)C(=C)[C@@H]4CC(C)C)CC[C@@H]23)C[C@@H](O)C[C@@H]1O
35 | 216% | C=C1/C(=C\C=C2/CCC[C@]3(C)[C@@H]([C@H](C)C[C@@H]4OC(=O)C(=C)[C@H]4CCCC)CC[C@@H]23)C[C@@H](O)[C@H](C)[C@@H]1O
36 | 86% | C=C1/C(=C\C=C2/CCC[C@]3(C)[C@@H]([C@H](C)C[C@@H]4OC(=O)C(=C)[C@@H]4CCC)CC[C@@H]23)C[C@@H](O)C[C@@H]1O
37 | 40% | C=C1C(=O)O[C@@H](C[C@@H](C)[C@H]2CC[C@H]3/C(=C/C=C4/C[C@@H](O)C[C@H](O)C4=C)CCC[C@]23C)[C@@H]1CC(C)C
38 | 102% | C=C1/C(=C\C=C2/CCC[C@]3(C)[C@@H]([C@H](C)C[C@H]4OC(=O)C(=C)[C@H]4CCCC)CC[C@@H]23)C[C@@H](O)[C@H](C)[C@@H]1O
39 | 117% | C=C1/C(=C\C=C2/CCC[C@]3(C)[C@@H]([C@H](C)C[C@H]4OC(=O)C(=C)[C@H]4CCC)CC[C@@H]23)C[C@@H](O)[C@H](CCCO)[C@@H]1O
40 | 913% | C=C1/C(=C\C=C2/CCC[C@]3(C)[C@@H]([C@H](C)C[C@@H]4OC(=O)C(=C)[C@H]4CCC)CC[C@@H]23)C[C@@H](O)[C@H](CCCO)[C@@H]1O
41 | 2030% | C=C1/C(=C\C=C2/CCC[C@]3(C)[C@@H]([C@H](C)C[C@@H]4OC(=O)C(=C)[C@H]4CCC)CC[C@@H]23)C[C@@H](O)[C@H](C)[C@@H]1O
42 | 5% | C=C1/C(=C\C=C2/CCC[C@]3(C)[C@@H]([C@H](C)C[C@H]4OC(=O)C(=C)[C@@H]4CC(C)C)CC[C@@H]23)C[C@@H](O)C[C@@H]1O
43 | 9% | C=C1C(=O)O[C@H](C[C@@H](C)[C@H]2CC[C@H]3/C(=C/C=C4/C[C@@H](O)C[C@H](O)C4=C)CCC[C@]23C)[C@@H]1CC(C)C
44 | 220% | C=C1/C(=C\C=C2/CCC[C@]3(C)[C@@H]([C@H](C)C[C@@H]4OC(=O)C(=C)[C@@H]4C)CC[C@@H]23)C[C@@H](O)C[C@@H]1O
45 | 18% | C=C1C(=O)O[C@H](C[C@@H](C)[C@H]2CC[C@H]3/C(=C/C=C4/C[C@@H](O)C[C@H](O)C4=C)CCC[C@]23C)[C@@H]1C
46 | 58% | C=C1C(=O)O[C@@H](C[C@@H](C)[C@H]2CC[C@H]3/C(=C/C=C4/C[C@@H](O)C[C@H](O)C4=C)CCC[C@]23C)[C@@H]1CCCC
47 | 4200% | C=C1/C(=C\C=C2/CCC[C@]3(C)[C@@H]([C@H](C)C[C@@H]4OC(=O)C(=C)[C@@H]4CCC)CC[C@@H]23)C[C@@H](O)[C@H](CCCO)[C@@H]1O
48 | 573% | C=C1/C(=C\C=C2/CCC[C@]3(C)[C@@H]([C@H](C)C[C@H]4OC(=O)C(=C)[C@@H]4CCC)CC[C@@H]23)C[C@@H](O)[C@H](CCCO)[C@@H]1O
49 | 1540% | C=C1/C(=C\C=C2/CCC[C@]3(C)[C@@H]([C@H](C)C[C@@H]4OC(=O)C(=C)[C@@H]4CCC)CC[C@@H]23)C[C@@H](O)[C@H](C)[C@@H]1O
50 | 60% | C=C1C(=O)O[C@@H](C[C@@H](C)[C@H]2CC[C@H]3/C(=C/C=C4/C[C@@H](O)C[C@H](O)C4=C)CCC[C@]23C)[C@@H]1CCC
51 | 12% | C=C1/C(=C\C=C2/CCC[C@]3(C)[C@@H]([C@H](C)C[C@H]4OC(=O)C(=C)[C@@H]4CCC)CC[C@@H]23)C[C@@H](O)[C@H](C)[C@@H]1O
52 | 345% | C=C1/C(=C\C=C2/CCC[C@]3(C)[C@@H]([C@H](C)C[C@@H]4OC(=O)C(=C)[C@@H]4CC)CC[C@@H]23)C[C@@H](O)C[C@@H]1O
